Like-named read-outs stand apart in the source and are kept apart here.

The text below walks through data of PMC6713262 (Cell, 2019).

For this assay, the target named is crystallized CB2 construct (CB2-T4L) (Homo sapiens, UniProt P34972, D228Y/G225M/G233N/G304E/G78L/H226L/INS221[…]/INS227[…]/INS235[…]/M234R/R229N/R242E/S224R/T127A/T153L/V231T). Put plainly: Radioligand competition binding with [3H]-CP55,940, crystallized CB2 construct. A general note: In a radioligand displacement assay an active substance lowers the binding of a labelled ligand.

With `Cc1c(C(=O)NC23CC4CC(CC(C4)C2)C3)nn(CCCCCO)c1-c1ccccc1` [AM10257, 1-(5-Hydroxypentyl)-4-methyl-5-phenyl-N-tricyclo[3.3.1.1^3,7]dec-1-yl-1H-pyrazole-3-carboxamide], the “Effect of construct modifications on binding affinity of CB2” value (T4L fusion, five mutations, N/C-terminal truncation, Figure S1F) is given as “little effect”.

Consider SR144528 [reference compound], for which the “Effect of construct modifications on binding affinity of CB2” value is recorded as “little effect”.
